Reference: US20090232735A1, “USE OF FRUCTOSE-BASED THERAPIES FOR THE TREATMENT OF CANCER” (CEDARS-SINAI MEDICAL CENTER, priority 2005, published 2009)

Tests used:
Assay type in all cases: cell-based, human
[1] = tested on: uric acid production in PANC-1 cells; assay: Uricase activity / uric acid production in PANC-1 conditioned medium; conditions: 5.5 mM fructose
Protocol: FIG. 32 depicts uric acid productionin PANC-1 cells in accordance with an embodiment of the present invention. Uric acid production in pancreatic cancer PANC-1 cells following incubation in 2 mM glucose, 5.5 mM glucose, and 5.5 mM fructose for 24 h, 48, 72, and 96 h respectively, p<0.01 5.5 mM fructose versus 5.5 mM glucose.
Based on the metabolomic studies which led the inventors to believe that fructose was metabolized in pancreatic cancer cells in large part to generate nucleic acids, the inventors devised a series of experiments to examine nucleic acid synthesis in the pancreatic cancer cells following either glucose or fructose-treatment. PANC-1 cells were incubated as before in 5.5 mM glucose or fructose for 24 h, following an ELISA-based fluorimetric assay (Amplex Red Uric acid uricase assay kit, Invitrogen) was employed to measure uricase activity in conditioned medium derived from the pancreatic cancer cells (Shi Y, Evans J E, Rock K L. Molecular identification of a danger signal that alerts the immune system to dying cells Nature 425, 516-21, 2003). Uricase activity correlates highly with uric acid production, a purine by-product of nucleic acid synthesis. […] Fluoresence was measured in a fluorescence microplate reader using excitation at 530 nm and detection at 590 nm, and the assay can detect levels as low as 100 nM uric acid.

[2] = tested on: GLUT-5 mRNA; assay: GLUT-5 mRNA by real-time RT-PCR in PANC-1 cells
Protocol: FIG. 22 depicts […] mRNA levels in pancreatic cancer cells in accordance with an embodiment of the present invention. Quantitative real-time RT-PCR was used to measure GLUT-5 mRNA levels in pancreatic cancer cells (PANC-1), following culture in 2 mM glucose, 5.5 mM glucose, or 5.5 mM fructose for 4 h and 24 h.
Brit J Biomed Sci 56(4): 285-292, 1999; Rogers S, Docherty S E, Slavin J L, Henderson and Best J D. Differential expression of GLUT12 in breast cancer and normal breast tissue. Cancer Letters 193(2): 225-233, 2003). […] Teal-time RT-PCR was used to measure GLUT-5 mRNA expression following 2 mM, and 5.5 mM glucose-, and 5.5 mM fructose-treatment for 4 h, and 24 h respectively. GLUT-5 mRNA was expressed as the fold-change relative to GLUT-5 mRNA levels in 2 mM glucose-treated cells. As depicted in FIG. 22, at 4 h, GLUT-5 mRNA levels were low in both the 5.5 mM glucose-, and fructose-treated PANC-1 cells. […] This agrees with other studies which have reported fructose-induced GLUT-5 mRNA expression in colon cancer (Gouyon F, Onesto C, Dalet V, Pages G, Leturque A, and Brot-Laroche E. Fructose modulates GLUT5 mRNA stability in differentiated Caco-2 cells: Role of cAMP-signalling pathway and PABP (polyadenylated-binding protein)-interacting protein (Paip) 2. J Biochem 375:167-174, 2003).

[3] = tested on: primary cultures of fresh surgically resected pancreatic cancers; assay: BRDU uptake in primary cultures of resected pancreatic cancers; conditions: all 5 primary pancreatic cancers, 5.5 mM, 72 h
Protocol: (§1) FIG. 18 depicts BRDU incorporation by pancreatic cells in accordance with an embodiment of the present invention. Freshly resected pancreatic cancers were mechanically, and enzymatically dispersed, and cells were pre-incubated in 2 mM glucose prior to treatment with 5.5 mM glucose or fructose for 72 h. BRDU (10 μM) was added to the medium at 48 h, and BRDU-uptake quantified at 72 h.
As immortalized cell-lines, such as PANC-1 pancreatic cancer cells, can become dedifferentiated after repeated passages, and in order to translate these findings in the PANC-1 cells to patients with pancreatic cancer, the inventors also examined proliferative rates in primary cultures of fresh surgically resected pancreatic cancers, following incubation in 2 mM, and 5.5 mM glucose or 5.5 mM fructose. Briefly, after mechanical and enzymatic (trypsin and DNAse) disaggregation, aliquots of tumor cells were seeded in 6-well plates, and incubated in standard DMEM media with 10% fetal bovine serum, and 2 mM glucose, 5.5 mM glucose, or 5.5 mM fructose for 72 h. As before in the PANC-1 experiments, BRDU (10 μM) was added in the […] of incubation in the sugars, following which BRDU-uptake was quantified.

[4] = tested on: normal pancreas cells; assay: Proliferation of normal pancreas cells (BRDU-uptake, MTS); conditions: 72 h
Protocol: as §1, with “20” for “18”, “a degree of increased proliferation of normal” for “BRDU incorporation by”, “normal pancreas tissues” for “pancreatic cancers”, “mechanically” for “mechanically,”, “60” for “48”
In the course of obtaining fresh surgically resected pancreatic cancer tissue, the inventors also obtained some peripherally adjacent “normal” pancreatic tissue and normal tissue from a patient undergoing pancreas resection for complications of chronic pancreatitis. The inventors studied 5 of these “normal” pancreas tissues, and although caveats may exist given that they were derived from pancreases which were involved with another disease entity, the inventors believe they offer a useful comparator for the tumors. […] As before, BRDU (10 µM) was added, after which BRDU-uptake was quantified. In parallel experiments, when sufficient normal pancreatic issue was available, proliferative rates following 72 h incubation in the sugars were also measured using the MTS proliferation assay. […]

[5] = tested on: fructokinase-1 (FK-1) mRNA; assay: Fructokinase-1 mRNA by Northern blot in MCF-7 cells; conditions: MCF-7, 5.5 mM fructose, 24 h
Protocol: FIG. 9 depicts Northern blot analysis of fructokinase-1 mRNA levels in MCF-7 breast cancer cells in accordance with an embodiment of the present invention. 20 μg total RNA was used to measure FK-1 mRNA levels in the MCF-7 cells following growth in 2 mM glucose, 5.5 mM glucose, or 5.5 mM fructose for 24 h. FK-1 was also detected in human liver, with lower levels in muscle tissue.
In additional studies, the inventors used Northern blot to confirm significant FK-1 mRNA expression in the breast cancer cells. As depicted in FIG. 9, fructokinase-1 mRNA expression was detected in MCF-7 cells cultured in 2, and 5.5 mM glucose, and 5.5 mM fructose, and in human muscle and liver tissue.

O=C(CO)[C@@H](O)[C@H](O)[C@H](O)CO [fructose]
uricase activity higher than glucose-treated cells ([1]; 96 h): ~20%
uricase activity higher than glucose-treated cells ([1]; 120 h): ~50%
GLUT-5 mRNA levels higher than in 2 mM glucose-treated cells ([2]; PANC-1, 5.5 mM fructose, 24 h): 1.5 fold
GLUT-5 mRNA levels higher than in 5.5 mM glucose-treated cells ([2]; PANC-1, 5.5 mM fructose, 24 h): 1.75 fold
GLUT-5 mRNA levels ([2]; PANC-1, 5.5 mM sugar, 4 h): low
proliferative rates (BRDU-uptake) in fructose compared to glucose [3]: higher proliferative rates
proliferative rates, 5.5 mM glucose vs 5.5 mM fructose [4]: did not differ significantly
FK-1 mRNA expression (Northern blot) [5]: Highest FK-1 expression
